Assay results from US8722729B2, “Unsaturated fatty acid monoesters and diesters on ascorbic acid and cosmetic uses thereof” (Pierre Fabre Dermo-Cosmetique, priority 2009, dated 2014).
Marks after values point to notes of the source that are not given here.

Assays:
IL-8 = test: Gene expression of IL8 in human dermal fibroblasts treated with H2O2 (real-time PCR); assay type: cell-based; details: for RQ (relative quantity of mRNA) IL-8 / % Inhibition of the level of mRNA expression IL-8: 3 μM; for RQ (relative quantity of mRNA) IL-8: senescent fibroblasts stimulated with H2O2, non-treated control = 1; for % Inhibition of the level of mRNA expression IL-8: vs H2O2 alone
Method: (§1) To evidence the activity of the compounds of general formula (I) against skin ageing and against inflammation, the effect of these compounds was measured on the gene expression of MMP-1, MMP-3 and IL8 in human dermal fibroblasts treated with H2O2, thereby mimicking the process of cellular senescence. The effect of these compounds of general formula (I) was also measured on the synthesis of hyaluronic acid and on hyaluronidase activity. The stimulation of the synthesis of hyaluronic acid also allows skin hydration to be improved and/or restored (Bissett D L. J. Cosmet. Dermatol. 2006 Dec. 5(4): 309-15. Glucosamine: an ingredient with skin and other benefits).
(§2) Human dermal fibroblasts (isolated from discarded operative skin) were cultured in DMEM culture medium+10% FCS. The cells were pre-treated with vitamin C and the compound to be tested for 16 h at 37° C. and then stimulated with H2O2. The cells were then replaced in DMEM with vitamin C and dioctadeca-9,12-dienoate of (9Z,9′Z,12Z,12′Z)-2-(2,2-dimethyl-1,3-dioxolan-4-yl)-5-oxo-2,5-dihydrofuran-3,4-diyl. 72 hours after ending of stress, the fibroblasts entered into senescence: the senescent fibroblasts no longer proliferate but remain metabolically active (Hayflick, J. Invest. Dermatol., 73; 8-14, 1979). The cells were then lysed with the lysis buffer of the RNeasy® kit (QIAGEN).
(§3) The extracted RNAs were converted to complementary DNA following the indications of the Quantitect Reverse Transcription kit by Qiagen. Real-time PCR analyses were conducted using an iQ cycler fluorescence thermocycler (BIO-RAD).
(§4) The level of expression of the mRNAs coding for MMP-1, MMP-3, IL8 was analyzed using the real-time PCR technique. To normalize the level of expression of the gene of interest, the analysis strategy developed by Vandesompela et al., Genome Biol. 3: RESEARCH0034 (2002) was chosen. […] In our model, the three tested reference genes were the following: β-actin (Human β-actin), GAPDH (Human glyceraldehyde-3-phosphate dehydrogenase) and YWHAZ (Tyrosine-3-monooxygenase, tryptopgan-5-monooxygenase activation protein zeta polypeptide).
(§5) The first step normalizes the Ct values obtained for the gene of interest in relation to the Ct values obtained for the reference gene, for each experimental condition.
(§6) The following was therefore calculated: ΔCt=Ctgene of interest−Ctreference gene
(§7) The second step of the calculation determines the variation in the number of copies of the gene of interest during treatment. To do so ΔΔCt is calculated: ΔΔCt=ΔCtnon-treated NHF−ΔCttreated NHF
(§8) For the non-treated control, this QR is therefore equal to 1. It is then possible to calculate an induction or inhibition factor of the gene of interest compared with this control.
(§9) Statistical analysis was performed using a test called “one-way ANOVA”. Variance analysis using the Dunnett test then allows the comparing, for each of the analyzed genes, of the ΔCt values of normal adult fibroblasts with the compounds in the presence of H2O2 in both cases. This test then gives the “p value” characterizing the significance of the results obtained for both conditions The degree of significance was established as follows: • significant for p<0.05(*) • very significant for p<0.005(**) • highly significant for p<0.001(***) • non-significant for p>0.05. […]
(§10) It is also possible to calculate percentage inhibition of the level of expression of the different mRNAs by the active ingredients to be evaluated, using the formula: […]

keratinocytes HaCaT = test: Assay of the synthesis of hyaluronic acid in HaCaT keratinocytes (ELISA); assay type: cell-based, human; details: for Percentage stimulation of the synthesis of hyaluronic acid: 48 h, vs control
Method: The keratinocytes HaCaT are cultured in DMEM culture medium+10% FCS. The cells are treated with the active ingredients to be tested (Table 1) for 48 h at 37° C. The synthesized hyaluronic acid (HA) is assayed in the culture medium using an ELISA type kit (Echelon®).
The percentage activity was determined as follows • percentage variation compared with the control %p/C=([HA]active ingred./[HA]control×100)−100 4.4.2 Results of the Assay of Hyaluronic Acid on the Line of Human Keratinocytes HaCaT

MMP-3 = test: Gene expression of MMP-3 in human dermal fibroblasts treated with H2O2 (real-time PCR); assay type: cell-based; details: for RQ (relative quantity of mRNA) MMP-3 / % Inhibition of the level of mRNA expression MMP-3: 3 μM; for RQ (relative quantity of mRNA) MMP-3: senescent fibroblasts stimulated with H2O2, non-treated control = 1; for % Inhibition of the level of mRNA expression MMP-3: vs H2O2 alone
Method: as §1, §2, §3, §4, §5, §6, §7, §8, §9, §10

MMP-1 = test: Gene expression of MMP-1 in human dermal fibroblasts treated with H2O2 (real-time PCR); assay type: cell-based; details: for RQ (relative quantity of mRNA) MMP-1 / % Inhibition of the level of mRNA expression MMP-1: 3 μM; for RQ (relative quantity of mRNA) MMP-1: senescent fibroblasts stimulated with H2O2, non-treated control = 1; for % Inhibition of the level of mRNA expression MMP-1: vs H2O2 alone
Method: as §1, §2, §3, §4, §5, §6, §7, §8, §9, §10

B16-F10 cells = test: Assay of melanin in B16-F10 cells (colorimetric, α-MSH stimulated); assay type: cell-based, murine; details: for inhibition at 10 µM / inhibition at 20 µM / inhibition at 50 µM / inhibition at 100 µM: B16-F10, 72 hours, read-out: Percentage inhibition of intracellular melanin
Method: Similarly, to evidence the depigmenting activity of the compounds of general formula (I) according to the invention, the effect of these compounds was measured on the synthesis of melanin by colorimetric assay on a cell line of murine melanomas: line B16-F10.
This is a test to measure the synthesis of melanin by colorimetric assay on a cell line of murine melanomas: line B16-F10. This test allows the evaluation of the depigmenting property of active ingredients.
The B16-F10 cells were seeded onto 96-well plates in DMEM medium supplemented with FCS (fetal calf serum) and incubated 24 hours at 37° C., 5% CO2. The cells were then stimulated with α-MSH (to stimulate the synthesis of melanin, the stimulation observed was about 150%) and treated 72 hours with the active ingredients to be tested. Each concentration of active ingredient was tested at least in triplicate. Total melanin followed by intracellular melanin dissolved in lysis buffer were then assayed by absorbency reading at 405 nm. The total proteins were determined in the lysate and the results are expressed in mg melanin/mg proteins. The percentage activity was calculated as follows: […]
A negative value indicates an inhibition, whereas a positive value indicates induced synthesis of melanin.

IC50 (B16-F10 cells; Mus musculus, B16-F10, α-MSH stimulated, read-out: IC50 intracellular melanin) [µM]	Compound	RQ (relative quantity of mRNA) IL-8 (IL-8)	% Inhibition of the level of mRNA expression IL-8 (IL-8)	Percentage stimulation of the synthesis of hyaluronic acid (keratinocytes HaCaT; 30 μM) [%]	Percentage stimulation of the synthesis of hyaluronic acid (keratinocytes HaCaT; 300 μM) [%]	Effect on the synthesis of hyaluronic acid (keratinocytes HaCaT; 30 and 300 μM)	RQ (relative quantity of mRNA) MMP-3 (MMP-3)	% Inhibition of the level of mRNA expression MMP-3 (MMP-3)	RQ (relative quantity of mRNA) MMP-1 (MMP-1)	% Inhibition of the level of mRNA expression MMP-1 (MMP-1)	inhibition at 10 µM (B16-F10 cells; Mus musculus) [%]	inhibition at 20 µM (B16-F10 cells; Mus musculus) [%]	inhibition at 50 µM (B16-F10 cells; Mus musculus) [%]	inhibition at 100 µM (B16-F10 cells; Mus musculus) [%]	Inhibition of IL-8 expression compared with ascorbic acid (IL-8)	Percentage stimulation of the synthesis of hyaluronic acid (keratinocytes HaCaT; 2 μM) [%]	Percentage stimulation of the synthesis of hyaluronic acid (keratinocytes HaCaT; 20 μM) [%]	Inhibition of MMP3 expression compared with ascorbic acid (MMP-3)	Inhibition of MMP1 expression compared with ascorbic acid (MMP-1)	Inhibition of the synthesis of intracellular melanin compared with vitamin C (B16-F10 cells)
–	O=C1O[C@H]([C@@H](O)CO)C(O)=C1O [Ascorbic acid, ascorbic acid]	1.2	92*** %	9	19	no effect	3.5	50* %	3.2	18%	-5	7	5	22	–	–	–	–	–	–
67	CCCCC/C=C\C/C=C\CCCCCCCC(=O)OC1=C(OC(=O)CCCCCCC/C=C\C/C=C\CCCCC)C(C2COC(C)(C)O2)OC1=O (stereo not drawn) [Molecule 1, diactodeca-9,12-dienoate of (9Z,9′Z,12Z,12′Z)-2-(2,2-dimethyl-1,3-dioxolan-4-yl)-5-oxo-2,5-dihydrofuran-3,4-diyl]	0.9	102*** %	–	–	–	1.9	81*** %	0.9	105*** %	9	21	41	71	more substantially inhibits the expression of MMP1, MMP3 and IL-8 than ascorbic acid	132	70	more substantially inhibits the expression of MMP1, MMP3 and IL-8 than ascorbic acid	more substantially inhibits the expression of MMP1, MMP3 and IL-8 than ascorbic acid	greater than that of vitamin C
